Measured values published in patent US12564600B2, “System for enhancing therapeutic compliance of the anti-cancer compound E7766” (Eisai R&D Management Co., Ltd., priority 2019, dated 2026).
“Also recorded” adds a separate entry of the source.

What was measured:
Assay type in all cases: in vitro ADME
OATP1B1 = target: T1, OATP1B1 (Homo sapiens, UniProt Q9Y6L6); assay: Uptake in HEK293 cells overexpressing OATP1B1
T1 construct: expressed in transfected cells; host or cells: HEK293-FT
T1 sequence (Q9Y6L6 1-691): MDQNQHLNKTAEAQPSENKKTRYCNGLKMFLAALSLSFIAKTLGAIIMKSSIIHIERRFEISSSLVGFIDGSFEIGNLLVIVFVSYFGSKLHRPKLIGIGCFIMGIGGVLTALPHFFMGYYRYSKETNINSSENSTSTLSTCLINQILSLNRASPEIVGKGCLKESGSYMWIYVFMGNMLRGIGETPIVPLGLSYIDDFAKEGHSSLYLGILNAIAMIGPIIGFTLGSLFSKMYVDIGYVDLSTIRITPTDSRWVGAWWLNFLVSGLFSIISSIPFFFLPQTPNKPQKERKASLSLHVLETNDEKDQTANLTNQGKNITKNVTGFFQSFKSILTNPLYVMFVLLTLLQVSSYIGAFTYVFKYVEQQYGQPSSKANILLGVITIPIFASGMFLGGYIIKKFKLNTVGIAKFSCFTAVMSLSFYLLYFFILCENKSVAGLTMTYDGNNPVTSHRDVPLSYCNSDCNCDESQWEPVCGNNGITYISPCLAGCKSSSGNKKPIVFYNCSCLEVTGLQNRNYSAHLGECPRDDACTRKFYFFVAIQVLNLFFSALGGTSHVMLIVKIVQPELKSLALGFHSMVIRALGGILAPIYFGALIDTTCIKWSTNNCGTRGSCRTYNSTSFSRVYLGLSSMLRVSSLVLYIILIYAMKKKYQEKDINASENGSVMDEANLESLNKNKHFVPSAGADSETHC
Procedure: (§1) TransportoCells™ (Corning, N.Y., USA) expressing OATP2B1, NTCP, and HEK293-FT cells stably transfected with the vector containing OATP1B1 cDNA or OATP1B3 cDNA or empty vector were grown in a Dulbecoo's modified Eagle's medium fortified with 10% fetal calf serum and 2 mmol/L sodium butyrate (for NTCP only) in a humidified incubator at 37° C. and 5% CO2. Cells were harvested at 90% confluence and then seeded in poly-D-lysine-coated 24-well 24 h prior to transporter assay. Cells were washed twice and pre-incubated with 200 μL of pre-warmed Krebs-Henseleit buffer. After pre-incubation, cells were incubated with 3 or 10 μmol L-1 of Compound 1 in presence or absence of 100 μmol L-1 of inhibitors (Rifamycin SV for OATP2B1, Troglitazone for NTCP, Rifamycin for OATP1B1 and OATP1B3). The transport reaction was terminated by aspirating the buffer from the wells at designated time. After washing three times with 200 μL of ice-cold Krebs-Henseleit buffer, the cells were lysed and the resulting cellular lysates were analyzed by LC-MS/MS.
(§2) Concentration-dependent uptake of Compound 1 via OATP1B1 and OATP1B3 were conducted with a concentration range of 0.25-100 μmol L-1 under linear uptake. All experiments were run in triplicates.

OATP1B3 = target: T2, OATP1B3 (Homo sapiens, UniProt Q9NPD5); assay: Uptake in HEK293 cells overexpressing OATP1B3
T2 construct: expressed in transfected cells; host or cells: HEK293-FT
T2 sequence (Q9NPD5 1-702): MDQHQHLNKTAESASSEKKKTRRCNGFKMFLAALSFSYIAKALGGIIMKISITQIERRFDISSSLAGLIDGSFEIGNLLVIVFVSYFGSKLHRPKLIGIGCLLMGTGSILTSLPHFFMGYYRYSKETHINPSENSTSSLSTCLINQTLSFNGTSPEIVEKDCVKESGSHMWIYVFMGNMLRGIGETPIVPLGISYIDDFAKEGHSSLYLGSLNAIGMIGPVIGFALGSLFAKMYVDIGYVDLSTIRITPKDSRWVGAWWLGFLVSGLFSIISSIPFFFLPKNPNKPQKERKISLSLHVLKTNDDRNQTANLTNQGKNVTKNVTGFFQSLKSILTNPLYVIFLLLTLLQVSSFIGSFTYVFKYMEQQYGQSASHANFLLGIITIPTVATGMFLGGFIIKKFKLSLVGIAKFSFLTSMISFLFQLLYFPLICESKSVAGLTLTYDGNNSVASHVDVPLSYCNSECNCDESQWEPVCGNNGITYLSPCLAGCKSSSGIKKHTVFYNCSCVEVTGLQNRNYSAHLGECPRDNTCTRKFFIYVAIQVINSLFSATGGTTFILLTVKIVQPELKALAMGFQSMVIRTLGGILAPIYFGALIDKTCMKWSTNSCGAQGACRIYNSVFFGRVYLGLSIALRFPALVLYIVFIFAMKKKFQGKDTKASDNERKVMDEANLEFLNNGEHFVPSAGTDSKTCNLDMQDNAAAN
Procedure: as §1, §2

MRP2 = target: T3, MRP2 (Homo sapiens, UniProt Q92887); assay: Transport in MRP2 expressing membrane vesicles
T3 construct: purchased Corning
Procedure: To study the interaction of Compound 1 with hepatic efflux (ABC) transporters, TransportoCells™ membrane vesicles expressing BCRP, BSEP, MRP2, and control vector vesicles were pre-incubation with vesicle uptake buffer (47 mmol L-1 MOPs-Tris, 65 mmol L-1 KCl, 7 mmol L-1 MgCl2, pH 7.4 for BCRP; 47 mmol L-1 MOPs-Tris, 2.5 mmol L-1 GSH, 65 mmol L-1 KCl, 7 mmol L-1 MgCl2, pH 7.4 for MRP2; and 10 mmol L-1 HEPES-Tris, 100 mmol L-1 KNO3, 12.5 mmol L-1 Mg(NO3)2, and 50 mmol L-1 sucrose, pH 7.4 for BSEP) at 37° C. for 10 minutes. The transport was initiated by adding of pre-warmed 25 mmol/L MgATP, 3 μmol L-1 of Compound 1 in presence or absence of inhibitors (3 μmol L-1 of Novobioncin for BCRP, 100 μmol L-1 of MK-571 for MRP2, and 20 μmol L-1 of Ketoconazole for BSEP). The transport was terminated at designated time by adding 200 μL ice-cold vesicle uptake buffer. The complete content was then rapidly filtrated using multi-screen HTS vacuum manifold, followed by 5 washes and filtrations. The plate was allowed to dry completely and then placed onto a 96-well receiver plate. A 50 μL of elute solution (75% methanol containing the internal standard) was added into each assay well followed by centrifugation at 2000 rpm for 5 minutes. […] The yield samples from two centrifugation were combined and analyzed by LC-MS/MS. […]

[1] = Simcyp input parameter, Table 3

T3 sequence (Q92887 whole entry): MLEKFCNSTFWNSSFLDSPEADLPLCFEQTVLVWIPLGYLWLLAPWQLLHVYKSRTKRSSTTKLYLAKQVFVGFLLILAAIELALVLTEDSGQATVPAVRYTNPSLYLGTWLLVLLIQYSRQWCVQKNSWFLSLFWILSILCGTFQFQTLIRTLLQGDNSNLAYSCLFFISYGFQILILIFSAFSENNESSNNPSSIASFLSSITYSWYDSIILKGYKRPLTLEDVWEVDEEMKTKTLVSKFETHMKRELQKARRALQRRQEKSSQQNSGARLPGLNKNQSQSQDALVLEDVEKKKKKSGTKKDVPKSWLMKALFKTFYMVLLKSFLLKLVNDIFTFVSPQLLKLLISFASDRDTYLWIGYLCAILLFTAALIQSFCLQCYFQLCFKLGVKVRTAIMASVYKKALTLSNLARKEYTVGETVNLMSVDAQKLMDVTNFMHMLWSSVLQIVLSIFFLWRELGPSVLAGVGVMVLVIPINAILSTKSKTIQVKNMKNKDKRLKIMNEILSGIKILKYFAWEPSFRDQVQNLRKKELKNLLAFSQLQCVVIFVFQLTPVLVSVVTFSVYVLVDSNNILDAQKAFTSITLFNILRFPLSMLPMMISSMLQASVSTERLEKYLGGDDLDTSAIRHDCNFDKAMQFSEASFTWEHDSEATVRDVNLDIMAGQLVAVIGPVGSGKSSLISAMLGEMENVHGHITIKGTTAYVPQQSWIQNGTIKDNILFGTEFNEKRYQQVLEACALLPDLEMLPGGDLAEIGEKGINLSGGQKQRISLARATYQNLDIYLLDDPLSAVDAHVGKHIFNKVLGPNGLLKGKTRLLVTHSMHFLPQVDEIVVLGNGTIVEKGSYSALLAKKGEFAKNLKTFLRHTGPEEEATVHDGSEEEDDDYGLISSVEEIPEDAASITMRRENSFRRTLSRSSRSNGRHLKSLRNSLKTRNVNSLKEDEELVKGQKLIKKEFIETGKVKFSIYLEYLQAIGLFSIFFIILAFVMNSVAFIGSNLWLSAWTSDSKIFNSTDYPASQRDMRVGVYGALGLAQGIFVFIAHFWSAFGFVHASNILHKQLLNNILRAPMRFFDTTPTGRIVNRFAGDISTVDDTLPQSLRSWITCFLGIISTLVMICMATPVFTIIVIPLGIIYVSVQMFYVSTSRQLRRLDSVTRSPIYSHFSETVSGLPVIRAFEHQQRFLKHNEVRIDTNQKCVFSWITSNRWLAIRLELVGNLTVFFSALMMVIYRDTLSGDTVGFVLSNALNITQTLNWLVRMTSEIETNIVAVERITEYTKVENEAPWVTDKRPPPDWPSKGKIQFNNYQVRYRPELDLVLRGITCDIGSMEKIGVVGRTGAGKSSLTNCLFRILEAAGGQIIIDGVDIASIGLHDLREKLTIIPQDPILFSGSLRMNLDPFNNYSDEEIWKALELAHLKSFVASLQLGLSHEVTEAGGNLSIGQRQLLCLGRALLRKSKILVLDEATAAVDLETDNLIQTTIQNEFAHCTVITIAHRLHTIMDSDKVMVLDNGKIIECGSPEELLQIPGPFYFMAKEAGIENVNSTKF

## O=[P@]1(S)OC[C@H]2O[C@@H]3[C@H](F)[C@@H]2O[P@](=O)(S)OC[C@H]2O[C@H]([C@H](F)[C@@H]2O1)n1cnc2c(ncnc21)NC/C=C/CNc1ncnc2c1ncn23 [Compound 1]
OATP1B1; HEK293 cells overexpressing human OATP1B1
  substrate of OATP1B1: responsible for hepatic uptake; also recorded: substrate
OATP1B1; [1]
  Jmax (pmol/min/million cells), OATP1B1: 8.34 pmol/min/million cells
OATP1B3; HEK293 cells overexpressing human OATP1B3
  substrate of OATP1B3: responsible for hepatic uptake; also recorded: substrate
OATP1B3; [1]
  Jmax (pmol/min/million cells), OATP1B3: 24.39 pmol/min/million cells
OATP1B3; human, HEK293-FT cells stably transfected with OATP1B3 cDNA, Simcyp input parameter, Table 3
  Km: 4 µM
OATP1B3; phenotyping studies
  contribution of OATP1B3 versus OATP1B1 in hepatobiliary clearance: predominant contribution of OATP1B3 over OATP1B1
MRP2
  substrate of biliary efflux transporter MRP2: sequential biliary efflux; also recorded: substrate
